This is an account of results in ChEMBL document CHEMBL1140363, “Structure-driven HtL: design and synthesis of novel aminoindazole inhibitors of c-Jun N-terminal kinase activity” (Bioorg Med Chem Lett, 2005).

Molecules are shown by their SMILES.

This assay deals with Mitogen-activated protein kinase 8 (Homo sapiens, UniProt P45983). As to the kind of experiment: Negative log of inhibitory concentration determined against c-Jun N-terminal kinase (Activity reported against the isolated JNK-1 enzyme).
Mitogen-activated protein kinase 8, sequence (P45983 whole entry): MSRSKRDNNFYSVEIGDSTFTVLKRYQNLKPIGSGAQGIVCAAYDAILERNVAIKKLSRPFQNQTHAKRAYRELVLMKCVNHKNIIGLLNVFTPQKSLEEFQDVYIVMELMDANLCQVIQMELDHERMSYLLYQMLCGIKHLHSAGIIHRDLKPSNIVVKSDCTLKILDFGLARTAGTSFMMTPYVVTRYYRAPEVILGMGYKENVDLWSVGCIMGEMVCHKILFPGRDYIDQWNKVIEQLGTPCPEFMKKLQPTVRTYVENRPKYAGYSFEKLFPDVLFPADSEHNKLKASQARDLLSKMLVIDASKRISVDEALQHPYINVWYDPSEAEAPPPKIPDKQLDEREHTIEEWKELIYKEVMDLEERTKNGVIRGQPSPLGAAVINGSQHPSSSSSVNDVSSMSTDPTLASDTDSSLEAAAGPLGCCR
As a reminder, the IC50 is the concentration that inhibits the measured activity by half. Take `CC(=O)Nc1ccc(CNc2[nH]nc3cccc(Oc4ccc(S(C)(=O)=O)cc4)c23)cc1`: inhibition was half-maximal at 794 nM (IC50).
Compound `O=C(NCc1ccccc1Cl)c1cccnc1Oc1ccccc1F` showed an IC50 of 1580 nM.
Compound `Clc1cccc(CNc2[nH]nc3cccc(Oc4ccccc4)c23)c1` showed an IC50 of 1260 nM.
Consider `COc1ccc(Oc2ncccc2C(=O)NCc2ccccc2Cl)cc1`, for which half-maximal inhibition (IC50) required 3980 nM.
`Nc1ccc2[nH]nc(NCc3ccccc3Cl)c2c1Oc1ccccc1`: it took 5010 nM to reach half-maximal inhibition (IC50).
`COc1ccc(OC)c(CNc2[nH]nc3cccc(Oc4ccc(S(C)(=O)=O)cc4)c23)c1` showed an IC50 of 398 nM.
Consider `O=[N+]([O-])c1ccc2[nH]nc(NCc3ccccc3Cl)c2c1Oc1ccccc1`, for which half-maximal inhibition (IC50) was put at 1580 nM.
Regarding `Clc1ccc(Cl)c(CNc2[nH]nc3cccc(Oc4ccccc4)c23)c1`, half-maximal inhibition (IC50) was put at 794 nM.
Compound `CC(=O)Nc1ccc(CNc2[nH]nc3cccc(Oc4ccc(F)cc4)c23)cc1` had an IC50 of 501 nM.
Turning to `COc1ccc(OC)c(CNc2[nH]nc3ccc([N+](=O)[O-])c(Oc4ccccc4)c23)c1`, inhibition was half-maximal at 794 nM (IC50).
As to `COc1ccc(OC)c(CNC(=O)c2cccnc2Oc2ccccc2)c1`, the IC50 was 100 nM.
For the compound `C[C@H](NC(=O)c1cccnc1Oc1ccccc1)c1ccccc1`, the IC50 was 6310 nM.
In the case of `COc1ccc(OC)c(CNc2[nH]nc3cccc(Oc4ccc(F)cc4)c23)c1`, the IC50 is 200 nM.
`CC(=O)Nc1ccc(CNc2[nH]nc3ccnc(Oc4ccccc4)c23)cc1` showed an IC50 of 158 nM.
In the case of `COc1ccc(OC)c(CNc2[nH]nc3cccc(Oc4ccccc4)c23)c1`, the IC50 is 126 nM.
`CC(=O)Nc1ccc(CNc2[nH]nc3cccc(Oc4ccccc4)c23)cc1`: the IC50 was 794 nM.
For `COc1ccc(OC)c(CNc2[nH]nc3ccnc(Oc4ccccc4)c23)c1`, the IC50 was 15.8 nM.
